In US20220361547A1, “TASTE MODIFYING COMPOSITIONS AND USES THEREOF” (Firmenich Incorporated, priority 2019, published 2022):
Counter-ions that a name gives are not always drawn.

Assay: Sensory testing: taste testers rate sweetness of aqueous sweetener compositions without and with A1
Format: in vivo, human
Settings: scale from 1 to 10
Description: Compositions of various sweetening agents were prepared without any additive and with the sodium salt of N-(1-((4-amino-2,2-dioxo-1H-benzo[c][1,2,6]thiadiazin-5-yl)oxy)-2-methyl-propan-2-yl)isonicotinamide (A1) added at various concentrations. Taste testers were asked to rate the sweetness of the resulting aqueous compositions for sweetness on a scale from 1 to 10.

Compound: CC(C)(COc1cccc2c1C(N)=NS(=O)(=O)N2)NC(=O)c1ccncc1 [A1, sodium salt of N-(1-((4-amino-2,2-dioxo-1H-benzo[c][1,2,6]thiadiazin-5-yl)oxy)-2-methyl-propan-2-yl)isonicotinamide]
- sweetness rating (aqueous Allulose (3.5%) with 4 ppm A1): 3.7
- sweetness rating (aqueous Allulose (3.5%) with 8 ppm A1): 4.7
- sweetness rating (aqueous Allulose (3.5%) with 12 ppm A1): 4.1
- sweetness rating (aqueous Allulose (3.5%) with 16 ppm A1): 5.5
- sweetness rating (aqueous D-(+)-Glucose (7%) with 4 ppm A1): 4.5
- sweetness rating (aqueous D-(+)-Glucose (7%) with 8 ppm A1): 4.2
- sweetness rating (aqueous D-(+)-Glucose (7%) with 12 ppm A1): 5.2
- sweetness rating (aqueous D-(+)-Glucose (7%) with 16 ppm A1): 5.7
- sweetness rating (aqueous Erythritol (5%) with 4 ppm A1): 4.4
- sweetness rating (aqueous Erythritol (5%) with 8 ppm A1): 4.4
- sweetness rating (aqueous Erythritol (5%) with 12 ppm A1): 5.7
- sweetness rating (aqueous Erythritol (5%) with 16 ppm A1): 6.0
- sweetness rating (aqueous Fructose (7%) with 4 ppm A1): 7.1
- sweetness rating (aqueous Fructose (7%) with 8 ppm A1): 7.4
- sweetness rating (aqueous Fructose (7%) with 12 ppm A1): 8.0
- sweetness rating (aqueous Fructose (7%) with 16 ppm A1): 8.3
- sweetness rating (aqueous HFCS (7%) with 4 ppm A1): 5.9
- sweetness rating (aqueous HFCS (7%) with 8 ppm A1): 7.2
- sweetness rating (aqueous HFCS (7%) with 12 ppm A1): 7.4
- sweetness rating (aqueous Reb M (200 ppm) with 4 ppm A1): 5.3
- sweetness rating (aqueous Reb M (200 ppm) with 8 ppm A1): 6.3
- sweetness rating (aqueous Reb M (200 ppm) with 12 ppm A1): 6.1
- sweetness rating (aqueous Reb M (200 ppm) with 16 ppm A1): 7.3
- sweetness rating (aqueous Sucralose (80 ppm) with 4 ppm A1): 6.1
- sweetness rating (aqueous Sucralose (80 ppm) with 8 ppm A1): 6.6
- sweetness rating (aqueous Sucralose (80 ppm) with 12 ppm A1): 7.1
- sweetness rating (aqueous Sucralose (80 ppm) with 16 ppm A1): 7.0
- sweetness rating (aqueous Sucrose (5%) with 4 ppm A1): 6.4
- sweetness rating (aqueous Sucrose (5%) with 8 ppm A1): 7.3
- sweetness rating (aqueous Sucrose (5%) with 12 ppm A1): 8.0

Compound: O=C(CO)C(O)C(O)C(O)CO (stereo not shown) [Allulose, reference compound]
- sweetness rating (aqueous Allulose (3.5%), No A1): 3.0

Compound: O=C[C@H](O)[C@@H](O)[C@H](O)[C@H](O)CO [D-(+)-Glucose, reference compound]
- sweetness rating (aqueous D-(+)-Glucose (7%), No A1): 3.8

Compound: OC[C@@H](O)[C@@H](O)CO [Erythritol, reference compound]
- sweetness rating (aqueous Erythritol (5%), No A1): 4.0

Compound: O=C(CO)[C@@H](O)[C@H](O)[C@H](O)CO [Fructose, reference compound]
- sweetness rating (aqueous Fructose (7%), No A1): 7.1

Compound: C=C1C[C@@]23CC[C@H]4[C@@](C)(CCC[C@@]4(C)C(=O)O[C@@H]4O[C@H](CO)[C@@H](O)[C@H](O[C@@H]5O[C@H](CO)[C@@H](O)[C@H](O)[C@H]5O)[C@H]4O[C@@H]4O[C@H](CO)[C@@H](O)[C@H](O)[C@H]4O)[C@@H]2CC[C@]1(O[C@@H]1O[C@H](CO)[C@@H](O)[C@H](O[C@@H]2O[C@H](CO)[C@@H](O)[C@H](O)[C@H]2O)[C@H]1O[C@@H]1O[C@H](CO)[C@@H](O)[C@H](O)[C@H]1O)C3 [Reb M, Rebaudioside M, reference compound]
- sweetness rating (aqueous Reb M (200 ppm), No A1): 4.7

Compound: OC[C@H]1O[C@H](O[C@]2(CCl)O[C@H](CCl)[C@@H](O)[C@@H]2O)[C@H](O)[C@@H](O)[C@H]1Cl [Sucralose, reference compound]
- sweetness rating (aqueous Sucralose (80 ppm), No A1): 3.3

Compound: OC[C@H]1O[C@@](CO)(O[C@H]2O[C@H](CO)[C@@H](O)[C@H](O)[C@H]2O)[C@@H](O)[C@@H]1O [Sucrose, reference compound]
- sweetness rating (aqueous Sucrose (5%), No A1): 3.6
